Target: ERα (Homo sapiens, UniProt P03372)
Assay: competitive radiometric binding assay with tritiated estradiol

Sequence of ERα (P03372 whole entry): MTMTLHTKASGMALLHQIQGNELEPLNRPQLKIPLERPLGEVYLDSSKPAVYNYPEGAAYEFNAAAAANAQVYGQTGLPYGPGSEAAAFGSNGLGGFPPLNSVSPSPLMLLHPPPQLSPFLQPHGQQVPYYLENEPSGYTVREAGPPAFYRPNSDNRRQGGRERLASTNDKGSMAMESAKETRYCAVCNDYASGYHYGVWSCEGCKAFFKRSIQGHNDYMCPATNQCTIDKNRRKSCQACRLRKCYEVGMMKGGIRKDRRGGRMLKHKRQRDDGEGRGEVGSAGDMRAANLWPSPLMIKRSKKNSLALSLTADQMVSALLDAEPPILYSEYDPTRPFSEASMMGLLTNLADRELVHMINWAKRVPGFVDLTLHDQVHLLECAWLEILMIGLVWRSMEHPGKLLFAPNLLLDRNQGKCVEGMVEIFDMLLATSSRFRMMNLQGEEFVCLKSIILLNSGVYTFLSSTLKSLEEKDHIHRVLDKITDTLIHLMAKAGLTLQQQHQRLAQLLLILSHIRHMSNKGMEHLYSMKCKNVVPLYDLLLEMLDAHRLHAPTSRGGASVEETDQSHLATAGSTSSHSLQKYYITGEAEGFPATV

“Cyclofenil-conjugated SNAPFL [compound 2]” gave a Ki of about 6 nM.
